Measured values taken from US10420758B2, “Indolinyl-sulfonamide inhibitors of tankyrase and methods of use thereof” (The Board of Regents of the University of Texas System, priority 2015, dated 2019).

Tested on: Dvl2
Assay: Ligand-dependent phosphorylation of Dvl2
Assay type: cell-based, human
Settings: HeLa cells, FIG. 4E
Excerpt: FIGS. 4A-4F show Tnks inhibitors induce telomeric stress in human cells independently of Wnt/β-catenin pathway inhibition. (FIG. 4A) Porcn inhibitors afford a Tnks-independent approach to disrupting Wnt/β-catenin signaling. Chemicals targeting the Wnt acyltransferase Porcn abrogate Wnt palmitoylation which in turn results in loss of activity of the Frizzled (Fzd) family of Wnt receptors. Fzd receptors directly induce activation of the cytoplasmic signaling molecule Dishevelled (Dvl) in a ligand-dependent manner, which in turn results in activation of β-catenin and transcription mediated by the TCF family of DNA binding proteins. IWP-2 and the clinical candidate LGK-974 represent two structurally distinct Porcn inhibitors. (FIG. 4B) Tnks but not Porcn inhibitors induce DNA damage at telomeres. The appearance of co-localized Terf2 and pH2A.X (an indicator of DNA damage at the telomere ends; Telomere Induced Foci or TIFs) was scored using indirect immunofluorescence in Hela cells (expressing wild-type Apc protein). (FIG. 4C) Quantification of results represented in “B”. Cells with >5 TIFs were scored as positive for telomeric damage (left bars). Mean total phosphorylated H2A.X (γ H2A.X) was used to measure general DNA damage responses (right bars). […] Digital droplet-based telomerase extension analysis of genomic DNA isolated from HeLa cells treated for 24 hrs with indicated compounds. […]

Cc1ccc2nc(NC(=O)CSc3nc4c(c(=O)n3-c3ccccc3)SCC4)sc2c1 [IWP-2]
ligand-dependent phosphorylation of Dvl2: block ligand-dependent phosphorylation of Dvl2

Cc1cc(-c2ncc(CC(=O)Nc3ccc(-c4cnccn4)cn3)cc2C)ccn1 [LGK-974]
ligand-dependent phosphorylation of Dvl2: block ligand-dependent phosphorylation of Dvl2
